According to US20030036562A1, “Water-soluble dendrimeric fullerene as anti-HIV therapeutic” (priority 2001, published 2003):
Like-named read-outs stand apart in the source and are kept apart here.

Key:
Protease = molecular target: T1, Protease (Human immunodeficiency virus type 1 group M subtype B, UniProt P04585); conditions: FDA-approved drugs; cited from earlier work
T1 construct: Protease

[1] = in vivo; cited from earlier work
Anti-C60 = conditions: measured inhibition of bovine thyroglobulin-fullerene conjugate binding by test compound; cited from earlier work
HIV-1 (wild type) = conditions: FDA-approved drugs; cited from earlier work
H9 cells = conditions: cited from earlier work
RT = RT (Human immunodeficiency virus type 1 group M subtype B, UniProt P04585); conditions: FDA-approved drugs; cited from earlier work
Vero cells = conditions: cited from earlier work
M184V (3TC resistant) = conditions: cited from earlier work
[2] = test system: CEM (human lymphoblastoid) cells; conditions: cited from earlier work
[3] = molecular target: T2, recombinant HIV-1 p66/51 reverse transcriptase (Human immunodeficiency virus type 1 group M subtype B, UniProt P04585); assay: Inhibition of p66/51 reverse transcriptase; assay type: biochemical
T2 construct: recombinant HIV-1 p66/51 reverse transcriptase

[4] = cited from earlier work
[5] = M184V, common RT mutant, FDA-approved drugs, read-out: EC50

CC(C)(C)NC(=O)[C@@H]1C[C@@H]2CCCC[C@@H]2CN1C[C@@H](O)[C@H](Cc1ccccc1)NC(=O)[C@H](CC(N)=O)NC(=O)c1ccc2ccccc2n1 [Saquinavir]
Protease Inhibitor (Protease): yes
Oral Bioavailability [1]: ˜4%

fullerenol [C]
Kd (Anti-C60): 750 µg/mL

D3-carboxyfullerene
Kd (Anti-C60): 38 µg/mL

CC(C)(C)NC(=O)[C@@H]1CN(Cc2cccnc2)CCN1C[C@@H](O)C[C@@H](Cc1ccccc1)C(=O)N[C@H]1c2ccccc2C[C@H]1O [Indinavir]
EC50 (HIV-1 (wild type)): ~100 nM
Protease Inhibitor (Protease): yes

Cc1cn([C@H]2C[C@H](N=[N+]=[N-])[C@@H](CO)O2)c(=O)[nH]c1=O [AZT]
EC50 (HIV-1 (wild type)): 50 nM
cytotoxicity (in words) (H9 cells): cytotoxic
RT Inhibitor (RT): yes
cytotoxicity (in words) (Vero cells): cytotoxic
EC50 (M184V (3TC resistant); [5]): 10 nM
cytotoxicity (in words) [2]: cytotoxic
IC50 ([3]; poly (rA)n oligo (dT)12 template primer, text b87, unit inferred, read-out: IC50 against RT): 21 nM

CC(C)c1nc(CN(C)C(=O)N[C@H](C(=O)N[C@@H](Cc2ccccc2)C[C@H](O)[C@H](Cc2ccccc2)NC(=O)OCc2cncs2)C(C)C)cs1 [Ritonavir]
EC50 (HIV-1 (wild type)): 45 nM
EC50 (M184V (3TC resistant); [5]): 800 nM
Protease Inhibitor (Protease): yes
Oral Bioavailability [1]: ˜78%

Nc1ccn([C@@H]2CS[C@H](CO)O2)c(=O)n1 [Compound 3TC, 3TC]
EC50 (HIV-1 (wild type)): 180 nM
EC50 (M184V (3TC resistant); [5]): > 100000 nM
EC50 (M184V (3TC resistant); text b84, unit inferred, read-out: activity against M184V): > 100000 nM

CC(C)CN(C[C@@H](O)[C@H](Cc1ccccc1)NC(=O)O[C@H]1CCOC1)S(=O)(=O)c1ccc(N)cc1 [Amprenavir]
EC50 (HIV-1 (wild type)): 54 nM
EC50 (M184V (3TC resistant); [5]): 500 nM
Protease Inhibitor (Protease): yes

c12c3c4c5c1c1c6c7c2c2c8c3c3c9c4c4c%10c5c5c1c1c6c6c%11c7c2c2c7c8c3c3c8c9c4c4c9c%10c5c5c1c1c6c6c%11c2c2c7c3c3c8c4c4c9c5c1c1c6c2c3c41 [unmodified C60, C60]
toxicity in vivo (in words) [4]: non toxic even at high doses

C3-carboxyfullerene
Kd (Anti-C60): 250 µg/mL

Cc1cn([C@H]2C[C@H](N=[N+]=[N-])[C@@H](CO[P@](=O)(O)O[P@](=O)(O)OP(=O)(O)O)O2)c(=O)[nH]c1=O [AZTTP]
inhibition at 0.001 µM ([3]; 0.001 μM): 8%
inhibition at 0.01 µM ([3]; 0.01 μM): 35.7%
inhibition at 0.1 µM ([3]; 0.1 μM): 72.7%
inhibition at 1 µM ([3]; 1 μM): 97%
inhibition at 10 µM ([3]; 10 μM): 99.6%
1C 90 ([3]; p66/51 1 unit/rxn, (rA)n.(dT)12-18): 0.27 µM
IC50 ([3]; p66/51 1 unit/rxn, (rA)n.(dT)12-18, read-out: 1C 50): 21 nM

Cc1c(O)cccc1C(=O)N[C@@H](CSc1ccccc1)[C@H](O)CN1C[C@H]2CCCC[C@H]2C[C@H]1C(=O)NC(C)(C)C [Nelfinavir]
EC50 (M184V (3TC resistant); [5]): 400 nM
Protease Inhibitor (Protease): yes
Oral Bioavailability [1]: 52%
